# Laboratory results from patent US6342219B1 (Board of Regents, The University of Texas System, priority 1999, dated 2002).
# Tests used:
# HT1080 fibrosarcoma = test: Treatment of established HT1080 xenografts (FIG. 5B); type: in vivo, nu/nu mice; conditions: 100 μg every two days
# Method: FIG. 5A and FIG. 5B. […] Treatments (T) were 100 μg of the IgG given i.p., except for the initial treatment that consisted of 500 μg of the IgG given i.v. Mean tumor volume along with the SEM is shown. At the end of the study (day 116), the mice were sacrificed and the tumors dissected out and weighed. […] The mice were treated every other day as indicated (T). […] Mean tumor volume along with the SE is shown.
# Male nu/nu mice bearing subcutaneous NCI-H358 tumors or HT1080 fibrosarcoma 200-400 mm^3 in size were injected i.p. with test or control antibodies. The NCI-H358 bearing mice were treated with 100 μg of antibodies per injection three times a week during the first week and twice a week during the second and third week. The mice were then switched to 50 μg per injection every five days. The HT1080 bearing mice were treated with 100 μg of the indicated antibody or saline every other day throughout the duration of the study. In both studies, mice were sacrificed when their tumors reached 2500 mm^3 in size or earlier if tumors began to ulcerate.
# VEGFR2 in PAE/KDR cells = test: VEGF-induced phosphorylation of VEGFR2 (immunoprecipitation and Western blot); type: cell-based, porcine; conditions: antibodies at 100 nM, 15 min
# Method: PAE/KDR, PAE/FLT, and bEND.3 cells were grown to 80-90% confluency in 100 mm tissue dishes in media containing 5% serum. The cells were then serum starved for 24 hours in media containing 0.1% serum. After pretreatment with 100 […] in PBS for 30 min, the cells were incubated with 5 nM (200 ng/ml) VEGF165, 5 nM (100 ng/ml) bFGF (R&D Systems, Minneapolis, Minn.), or A673 tumor conditioned media in the presence or absence of control or test antibodies for additional 15 min.
# The cells were then washed with ice-cold PBS containing 10 mM EDTA, 2 mM sodium fluoride, and 2 mM sodium orthovanadate and lysed in lysis buffer (50 mM Tris, 150 mM NaCl, 1% Nonidet P-40, 0.25% sodium deoxycholate, 0.1% CHAPS, 5 mM EDTA, 1.5 mM MgCl2, 2 mM sodium fluoride, 2 mM sodium orthovanadate, 10% glycerol and protease inhibitors (Complete Protease Inhibitor Cocktail tablets, Boehringer Mannheim)). The lysates were clarified by centrifugation and resulting supernatant used for immunoprecipitation.
# The reactions using the chicken anti-FLT-1 antibody were subsequently incubated with a bridging goat anti-chicken antibody (Kirkegaard and Perry Laboratories, Inc.) for 1 h at 4° C. […]
# KDR on ABAE cells = test: 125I-VEGF binding studies on KDR expressing endothelial cells; design: species or system bovine
# VEGF = biological target: T1, VEGF (Homo sapiens, UniProt P15692); test: Competition ELISA (epitope groups); type: binding
# T1 sequence (P15692 27-191 isoform P15692-4): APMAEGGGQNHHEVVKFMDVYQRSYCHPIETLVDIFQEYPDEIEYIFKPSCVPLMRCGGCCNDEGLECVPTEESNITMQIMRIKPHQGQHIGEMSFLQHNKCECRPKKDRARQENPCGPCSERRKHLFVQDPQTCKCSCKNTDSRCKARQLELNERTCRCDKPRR
# Method: Competition ELISA studies were performed by first labeling the antibodies with peroxidase according to the manufacturer's instructions (EZ-Link Activated Peroxidase, Pierce). […] Approximately 0.5-2.0 μg/ml of peroxidase labeled test antibody was incubated on the plate in the presence of either buffer alone, an irrelevant IgG, or the other anti-VEGF competing antibodies in a 10-100 fold excess.
# The assay was done in triplicate at least twice for each combination of labeled and competitor antibody. Two antibodies were considered to be in the same epitope group if they cross-blocked each other's binding by greater than 80%.
# [1] = tested on: tumor sections (endothelium, connective tissue, tumor cell); test: Immunohistochemistry on frozen tumor sections (reactivity pattern); type: binding; design: key: EC = endothelium; CT = connective tissue; TC = tumor cell; NR = no reaction; conditions: acetone fixed frozen sections; 2C3 and 12D7 at 20 μg/ml, others 5-10 μg/ml
# Method: Guinea pig line 10 hepatocellular carcinoma tumor cells (obtained from Dr. Ronald Neuman, NIH, Bethesda, Md.) were grown in strain 2 guinea pigs (NCI, Bethesda, Md.). The human tumors NCI-H358 non-small cell lung carcinoma (NSCLC), NCI-H460 NSCLC (both obtained from Dr. Adi Gazdar, UT Southwestern, Dallas, Tex.), HT29 colon adenocarcinoma (American Type Culture Collection), and L540CY Hodgkin's lymphoma (obtained from Professor V. Diehl, Cologne, Germany) were grown as xenografts in CB17 SCID mice (Charles River, Wilmington, Mass.).
# Tumors were snap frozen in liquid nitrogen and stored at −70° C. Frozen samples of tumor specimens from patients were obtained from the National Cancer Institute Cooperative Human Tissue Network (Southern Division, Birmingham, Ala.). Immunohistochemistry was performed as described by Burrows et al. (1995). […]
# The immunohistochemical reactivity of 3E7, GV39M, and 11B5 on NCI-H358 human NSCLC xenografts was determined and compared with control antibodies (an IgG of irrelevant specificity; A-20, a rabbit anti-VEGF antibody; and MECA 32, a rat anti-mouse endothelial cell antibody). […]
substance,measurement,setting,value
"2C3: anti-VEGF monoclonal antibody, IgG2a, k, produced by hybridoma ATCC PTA 1595; blocks VEGF binding to VEGFR2 but not VEGFR1 [Clone 2C3]",Effect on growth of HT1080 tumors,HT1080 fibrosarcoma,arrested the growth of the tumors
same,Blocking of VEGF-induced phosphorylation of VEGFR2,VEGFR2 in PAE/KDR cells,block
same,Blocking of 125I-VEGF binding to KDR,KDR on ABAE cells,blocks VEGF from binding to KDR in a concentration dependent manner
same,Cross-reactivity of 2C3 and A4.6.1 in competition studies,VEGF,not cross-reactive
same,Epitope Group,VEGF; determined through competitive ELISA,4
same,Reactivity (immunohistochemical pattern on tumor sections),[1],NR
